How the values were obtained:
Escherichia coli [1] = assay: Molecular phenotypic antimicrobial susceptibility test (extraction or DNA purification prior to PCR); format: cell-based
Outline: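 Patient specimens in boric acid preservative were culture-incubated, diluted to 0.5 McFarland and exposed for 12-16 hours to antimicrobials in broth at their sensitivity breakpoint concentration(s), with a no-drug well for pathogen load. Growth was then measured by semi-quantitative PCR, either after DNA purification (e.g. magnetic beads) or directly after lysis-buffer treatment without extraction.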

Escherichia coli [2] = assay: Traditional culture-based antimicrobial susceptibility test; format: cell-based
Outline: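 E. coli isolates underwent conventional growth, isolation and exposure to antimicrobials, giving a culture-based susceptibility call for each agent.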

M. morganii = assay: Molecular phenotypic antimicrobial susceptibility test, specimen with two detected pathogens incubated together without isolation; format: cell-based, Morganella morganii; details: M. morganii in specimen with two detected pathogens (E. coli and M. morganii) incubated together; for Ct of Sensitive Breakpoint: Ct of controls (average) 19.99; for Molecular Antimicrobial Susceptibility Result: at sensitive breakpoint
Protocol: Detection of Molecular Phenotypic Antimicrobial Susceptibility. Disclosed herein are the methods for the detection of phenotypic antimicrobial susceptibility via molecular methods. The present invention describes how a specimen 100 with a known microbial load is incubated and then exposed to a panel of antimicrobial agents to determine sensitivity (prevention of growth) or resistance (allowance of growth) to the specific antimicrobial agents tested utilizing molecular methods.
Sample Collection. Specimens 100 are collected from patients using sterile collection processes that are employed in routine clinical care. Specimens are transported to the testing facility in boric acid preservative. Specimens 100 are subsequently divided into a first sample 104 and a second sample 108.
Preparation of the Specimens for Testing. The specimens 100 are put through a pathogen identification process using PCR technology (e.g., using the first sample 104). The process for pathogen isolation includes steps of harvesting the pathogen (e.g., via centrifugation), isolating pathogen DNA via a DNA isolation and/or purification kit, and performing PCR on the pathogen DNA via PCR components (e.g., primers, enzymes, buffers) as would be known to the skilled artisan. Simultaneously, an additional aliquot of the same specimen (e.g., the second sample 108) is placed with liquid culture media and incubated for 4-6 hours. This aliquot is used for antimicrobial susceptibility testing if indicated based on the pathogen detection results. After pathogen identification is completed and if more than 10,000 cells/mL of bacteria (e.g., eligible bacteria) are detected in the source specimen, the second sample 108 then enters the antimicrobial susceptibility phase of testing. Specimens 100 with lower pathogen loads could also be utilized in the antibiotic susceptibility phase of testing with or without a longer incubation period.
Preparation of Antimicrobial Susceptibility Testing Plates. Antimicrobial solutions are prepared at known concentrations. The specific antimicrobials and their concentrations are selected based on the pathogen of interest and the described antimicrobial resistance breakpoints for that specimen pathogen and antimicrobial combination. These antimicrobials have been selected based on those commonly utilized by healthcare providers in routine clinical care for the specific type of suspected infection. The number and types of antimicrobials utilized can be customized based on the infection source, pathogen detected, patient-specific factors such as allergies or other health conditions (e.g., chronic kidney disease or concurrent medication use), or healthcare provider preferences such as antimicrobial availability or cost.
The antimicrobial solutions are prepared in liquid culture media (such as Muller Hinton Broth) to achieve the desired antimicrobial concentration and are then stored at −80° C. until use. For a given specimen, each antimicrobial is tested at a single or multiple antimicrobial concentration(s) which is its established breakpoints for sensitivity. The antimicrobial solutions are prepared and plated out for each specific pathogen. This allows ease of use on the day of testing after defrosting the plate 112. Table 1, which illustrates the results of molecular phenotypic antimicrobial susceptibility testing when more than one organism is present in the source specimen, provides an example of an antimicrobial plate 112 prepared for this purpose. Of note, control wells containing only culture media are present on all plates 112. This allows for evaluation of pathogen load when no antimicrobial is present.
Specimen Exposure to Antimicrobial Agents. The 1 mL aliquot of the specimen 100 previously mixed with culture media and incubated is obtained. Using optical density measurements as a guide, the specimen 100 is diluted to 0.5 McFarland. […]

[3] = E. coli isolate 1, Ct at control (average) 21.238
[4] = E. coli isolate 1, at sensitive breakpoint
[5] = E. coli isolate 2, Ct at control (average) 21.270
[6] = E. coli isolate 2, at sensitive breakpoint
[7] = E. coli isolate 3, Ct at control (average) 22.0995
[8] = E. coli isolate 3, at sensitive breakpoint
[9] = E. coli isolate 4, Ct at control (average) 17.5733
[10] = E. coli isolate 4, at sensitive breakpoint
[11] = E. coli isolate 5, Ct at control (average) 21.0933
[12] = E. coli isolate 5, at sensitive breakpoint
[13] = E. coli #1 - WDCM 00090 - 6.2×E3
[14] = E. coli #2 - WDCM 00090 - 6.2×E3

Row | Compound | Ct at Sensitive Breakpoint (Escherichia coli [1]; [3]) | Molecular Antimicrobial Susceptibility Result (Escherichia coli [1]; [4]) | Ct at Sensitive Breakpoint (Escherichia coli [1]; [5]) | Molecular Antimicrobial Susceptibility Result (Escherichia coli [1]; [6]) | Ct at Sensitive Breakpoint (Escherichia coli [1]; [7]) | Molecular Antimicrobial Susceptibility Result (Escherichia coli [1]; [8]) | Traditional Culture Result (Escherichia coli [2]; E. coli isolate 1 (Table 3)) | Traditional Culture Result (Escherichia coli [2]; E. coli isolate 2 (Table 3)) | Traditional Culture Result (Escherichia coli [2]; E. coli isolate 3 (Table 3)) | Traditional Culture Result (Escherichia coli [2]; E. coli isolate JJ1887) | Ct of Sensitive Breakpoint (M. morganii) | Molecular Antimicrobial Susceptibility Result (M. morganii) | Ct at Sensitive Breakpoint (Escherichia coli [1]; [9]) | Molecular Antimicrobial Susceptibility Result (Escherichia coli [1]; [10]) | Ct at Sensitive Breakpoint (Escherichia coli [1]; [11]) | Molecular Antimicrobial Susceptibility Result (Escherichia coli [1]; [12]) | Traditional Culture Results (Escherichia coli [2]; [13]) | Traditional Culture Results (Escherichia coli [2]; [14]) | Traditional Culture Result (Escherichia coli [2]; E. coli isolate 4 (Table 3)) | Traditional Culture Result (Escherichia coli [2]; E. coli isolate 5 (Table 3))
1 | Ampicillin/Sulbactam | 19.827 | Resistant | 21.753 | Resistant | 20.363 | Resistant | Resistant | Resistant | Resistant | Resistant | 22.00 | Sensitive (Antimicrobial wells with pathogen load detected below the control wells (typically >2 cycle thresholds later) may be reported as Sensitive) | – | – | – | – | – | – | – | –
2 | Gentamicin | 22.585 | Resistant | 24.165 | Sensitive (Antimicrobial wells with pathogen load detected below the control wells (typically >2 cycle thresholds later) may be reported as Sensitive) | 25.112 | Sensitive (Antimicrobial wells with pathogen load detected below the control wells (typically >2 cycle thresholds later) may be reported as Sensitive) | Sensitive | Sensitive | Sensitive | Resistant | 30.09 | Sensitive (Antimicrobial wells with pathogen load detected below the control wells (typically >2 cycle thresholds later) may be reported as Sensitive) | 22.64 | Sensitive (Antimicrobial wells with pathogen load detected below the control wells (typically >2 cycle thresholds later) may be reported as Sensitive) | 25.77 | Sensitive (Antimicrobial wells with pathogen load detected below the control wells (typically >2 cycle thresholds later) may be reported as Sensitive) | Sensitive | Sensitive | Sensitive | Sensitive
3 | CO/N=C(\C(=O)N[C@@H]1C(=O)N2C(C(=O)[O-])=C(C[N+]3(C)CCCC3)CS[C@H]12)c1csc(N)n1 [Cefepime] | – | – | – | – | – | – | – | – | – | Resistant | 29.72 | Sensitive (Antimicrobial wells with pathogen load detected below the control wells (typically >2 cycle thresholds later) may be reported as Sensitive) | 17.09 | Resistant | 26.77 | Sensitive (Antimicrobial wells with pathogen load detected below the control wells (typically >2 cycle thresholds later) may be reported as Sensitive) | – | – | Resistant | Sensitive
4 | Piperacillin/Tazobactam | 25.572 | Sensitive (Antimicrobial wells with pathogen load detected below the control wells (typically >2 cycle thresholds later) may be reported as Sensitive) | 22.685 | Sensitive (Antimicrobial wells with pathogen load detected below the control wells (typically >2 cycle thresholds later) may be reported as Sensitive) | 20.541 | Sensitive (Antimicrobial wells with pathogen load detected below the control wells (typically >2 cycle thresholds later) may be reported as Sensitive) | Sensitive | Sensitive | Sensitive | Sensitive | 29.64 | Sensitive (Antimicrobial wells with pathogen load detected below the control wells (typically >2 cycle thresholds later) may be reported as Sensitive) | 26.05 | Sensitive (Antimicrobial wells with pathogen load detected below the control wells (typically >2 cycle thresholds later) may be reported as Sensitive) | 25.44 | Sensitive (Antimicrobial wells with pathogen load detected below the control wells (typically >2 cycle thresholds later) may be reported as Sensitive) | Sensitive | Sensitive | Sensitive | Sensitive
5 | O=C(O)c1cn(C2CC2)c2cc(N3CCNCC3)c(F)cc2c1=O [Ciprofloxacin] | 20.351 | Resistant | 19.988 | Resistant | 21.394 | Resistant | Resistant | Resistant | Resistant | Resistant | 34.71 | Sensitive (Antimicrobial wells with pathogen load detected below the control wells (typically >2 cycle thresholds later) may be reported as Sensitive) | 17.68 | Resistant | 33.02 | Sensitive (Antimicrobial wells with pathogen load detected below the control wells (typically >2 cycle thresholds later) may be reported as Sensitive) | – | – | Resistant | Sensitive

— US20250290117A1, “MOLECULAR PHENOTYPIC ANTIMICROBIAL SUSCEPTIBILITY TESTING” (priority 2024, published 2025)
